Assay results published in patent US20230340440A1, “GENETIC MANIPULATION METHOD IN BACTERIA” (University of Washington, priority 2022, published 2023).
Values after ≈ are worked out from the molar mass of the structure shown. Like-named read-outs stand apart in the source and are kept apart here.

Columns and labels:
E. coli = assay: growth experiment with extracellular p-ACA, E. coli; type: cell-based
Excerpt: (§1) FIGS. 31A-31F show CRISPRa efficiency can be tuned by expression level of scRNA. The optimized expression level of scRNA from pBBR1-GmR is under J23110 promoter. Higher level (BBa_J23119) or lower level (BBa_J23106) led to decrease in CRISPRa effects (FIG. 31A). CRISPRa efficiency can be tuned by scRNA composition (FIG. 31B). Truncating the spacer sequence from 20 nucleotides to 8 nucleotides led to titratable expression level by CRISPRa. Desired product p-ACA is toxic to E. coli but not P. putida (FIG. 31C). In this kinetic growth experiment, extracellular p-ACA is supplied in the media at the indicated concentrations, and cultures are grown in a plate reader with periodic density measurements. E. coli growth is severely limited above 20 mM p-ACA (dash-dotted line). Early timepoints are sometimes obscured by p-ACA precipitate, which eventually resolubilizes. […] Error bars represent standard deviation of n=3 biological replicates. […] An example of CRISPRa with 3 orthogonal scRNAs activating 3 fluorescent reporters (FIG. 31E). Multiple scRNAs construction strategy was based on Golden-Gate Assembly (FIG. 31F).
(§2) With further chemical modification or bioconversions, pACA can be converted into p-aminostyrene (pAS) which is a precursor of derivatized polystyrene, containing a functional group for further modification or functionalization with other polymers. […] Assuming that high concentration of pACA could be deleterious to the host, a growth experiment using E. coli, the standard chassis, and P. putida, known for resistance to aromatic compounds was performed. It is obvious that E. coli cannot tolerate high concentrations of pACA while P. putida growth is less affected. Thus, the solution to microbial production of pACA might be achievable with P. putida as an alternative chassis.
As originally implemented in E. coli, the p-AF production pathway consisted of the P. fluorescens papABC operon78 under tet-inducible control, along with a feedback-resistant E. coli aroG74 and aroL in their own operon, which is also tet-inducible. […] Toxic amounts of extracellular p-ACA, the result of a spike into the media, are shown in FIG. 31B, with 50% reduction of E. coli growth occurring above 10 mM extracellular.

P. putida = assay: growth experiment with extracellular p-ACA, P. putida; type: cell-based
Excerpt: as §1, §2
In contrast to E. coli, p-ACA has little effect on P. putida growth, even up to 20 mM extracellular (close to its solubility limit). Therefore, the inventors chose to port the existing pAF pathway into P. putida to extend it to more valuable downstream aromatic products.

p-ACA solubility limit = type: physicochemical; details: aqueous buffer; extracellular, culture media
P. putida cultures = assay: consumption of extracellular p-ACA by growing P. putida cultures; details: stability of accumulation in culture supernatant
LacI-Ptrc promoter = assay: inducible LacI-Ptrc-mediated activation of an mRFP reporter gene; type: cell-based, P. putida KT2440; details: 1 mM IPTG compared to the no inducer condition
Experimental: (§3) FIGS. 17A-17C show inducible promoters in P. putida (FIG. 17A). Inducible LacI-Ptrc-mediated activation of an mRFP reporter gene in P. putida KT2440 with 0-1 mM IPTG. A 13-fold activation at 1 mM IPTG was observed compared to the no inducer condition. Inducible XylS-Pm-mediated activation of an mRFP reporter gene in P. putida KT2440 with 0-5 mM m-toluic acid (FIG. 17B). […] The XylS-Pm promoter provides a better dynamic range compared to LacI-Ptrc promoter mainly due to its relatively low basal expression. mRFP reporter gene fluorescence distributions measured by flow cytometry (FIG. 17C). […] Values in FIG. 17A represent the mean ± standard deviation calculated from n = 6 independent biological replicates. Values in FIG. 17B represent the mean ± standard deviation calculated from n = 3 independent biological replicates. […]
(§4) Fluorescence measurements of reporter gene expression were carried out either by flow cytometry or plate reader. […] For flow cytometry, overnight cultures were diluted 1:50 in Dulbecco’s phosphate-buffered saline (PBS) and analyzed on a MACSQuant VYB flow cytometer with the MACSQuantify 2.8 software (Miltenyi Biotec) using the methods and instruments settings as described (Dong et al., 2018. Synthetic CRISPR-Cas gene activators for transcriptional reprogramming in bacteria. Nat Commun 9, 2489). […]

XylS-Pm promoter = assay: inducible XylS-Pm-mediated activation of an mRFP reporter gene; type: cell-based, P. putida KT2440; details: 1 mM m-toluic acid compared to the no inducer condition
Experimental: as §3, §4

XylS-Pm-dCas9 = assay: tunable CRISPRa/CRISPRi in inducible-dCas9 strain (PPC08), J3-BBa_J23110-mRFP reporter; type: cell-based, P. putida
Excerpt: FIGS. 5A-5B show CRISPRa with endogenous promoters and inducible CRISPRa/CRISPRi in P. putida. The putative promoter sequences between two open reading frames (ORFs) with 60 bp flanking sequences were incorporated into the mRFP reporter (FIG. 5A). scRNAs were introduced for all potentially activable target sites corresponding to the effective distances as tested in FIGS. 2B & 2C. Precise distances from the target site to the TSS are listed in Table 5. hAAVS1 was used as an off-target scRNA for all ten promoters. […] The inducible-dCas9 strain yielded 3-fold activation with CRISPRa or 7-fold repression with CRISPRi at 1 mM m-toluic acid compared to the no-inducer control. Fold-changes compared to the off-target control were 4-fold and 5-fold, respectively. […] Values represent the mean ± standard deviation calculated from n = 3 independent biological replicates.
(§5) Fluorescence measurements of reporter gene expression were carried out either by flow cytometry or plate reader. Single colonies from LB plates were inoculated in 500 µL of EZ-RDM (Teknova) supplemented with the appropriate antibiotics and grown in 96-deep-well plates at 30° C. with shaking overnight 225 rpm. For small-molecule induction, overnight cultures were diluted 100-fold into a new culture with appropriate antibiotics and inducers, then shaken overnight at 30° C., 225 rpm. For flow cytometry, overnight cultures were diluted 1:50 in Dulbecco’s phosphate-buffered saline (PBS) and analyzed on a MACSQuant VYB flow cytometer with the MACSQuantify 2.8 software (Miltenyi Biotec) using the methods and instruments settings as described (Dong et al., 2018. Synthetic CRISPR-Cas gene activators for transcriptional reprogramming in bacteria. Nat Commun 9, 2489). For plate reader measurements, 150 µL of overnight culture were transferred into a flat, clear-bottomed black 96-well plate. OD600 and fluorescence values were measured in a Biotek Synergy HTX plate reader and analyzed using the BioTek Gen5 2.07.17 software. For mRFP1 detection, the excitation wavelength was 540 nm and emission wavelength was 600 nm. For sfGFP detection, the excitation wavelength was 485 nm and the emission wavelength was 528 nm. Data were plotted using Prism (GraphPad).
A reporter with either an activating scRNA or a repressing sgRNA was delivered to the inducible dCas9 strain (PPC08) and 3-fold activation with CRISPRa or 7-fold repression with CRISPRi at 1 mM m-toluic acid (FIG. 5B) was observed. […] By targeting CRISPRi and CRISPRa to the same locus, we may be able to obtain lower basal expression and higher induced expression. […]

[1] = system: XylS-Pm promoters regulating dCas9 and/or MCP-SoxS; assay: inducible CRISPRa by XylS-Pm on CRISPRa machinery, J3-BBa_J23117-mRFP reporter (pPPC020); type: cell-based, P. putida; details: for fold-activation in the presence of inducer: J306 scRNA
Excerpt: FIGS. 18A-18B show inducible CRISPRa by XylS-Pm on CRISPRa machinery. Inducible dCas9/MCP-SoxS constructs were integrated into the P. putida genome with the mini-Tn7 method (FIG. 18A). XylS-Pm promoters were introduced in place of the Sp.pCas9 promoter regulating dCas9 and/or the BBa_J23107 promoter for MCP-SoxS. Strains were transformed with a vector (pPPC020) carrying either an off-target scRNA or a J306 scRNA (FIG. 18B). The fold-activation in the presence of m-toluic acid as an inducer are 9-fold, 5-fold, and 10-fold from PPC08, PPC09, and PPC10, respectively. […] If only MCP-SoxS is under control of the inducible promoter, leaky activation is detectable. In a strain with constitutively expressed CRISPRa machinery that should not be responsive to inducer, high inducer concentrations (5 mM) also led to a modest increase in mRFP expression (1.3-fold). Values represent the mean ± standard deviation calculated from n = 3 independent biological replicates.
as §5, with “For sfGFP detection, the excitation wavelength was 485 nm and the emission wavelength was 528 nm. Data were plotted using Prism (GraphPad).” left out
To tune expression levels with CRISPRa and CRISPRi, the CRISPR system components were placed under the control of a small-molecule inducible promoter. dCas9 and/or MCP-SoxS were expressed using XylS-Pm, an inducible promoter system from the P. putida mt-2 toluene degradation pathway (Wirth et al., 2019. Accelerated genome engineering of Pseudomonas putida by I-SceI-mediated recombination and CRISPR-Cas9 counterselection. Microb Biotechnol). […] In all three inducible strains assessed, tunable gene activation as a function of inducer concentration was observed (FIG. 18B). […]

[2] = 1 mM m-toluic acid compared to the no-inducer control
[3] = 1 mM m-toluic acid compared to the off-target control

SMILES: Nc1ccc(C[C@H](N)C(=O)O)cc1 [p-AF, p-aminophenylalanine]
- toxic effects in E. coli host (E. coli): can safely accumulate

SMILES: Nc1ccc(C=CC(=O)O)cc1 [p-ACA, p-aminocinnamic acid]
- IC50 (E. coli; Escherichia coli, read-out: 50% reduction of E. coli growth): > 10 mM
- E. coli growth severely limited above (E. coli; kinetic growth experiment, extracellular p-ACA in the media, plate reader (FIG. 31C)): above 20 mM
- toxic effects in E. coli host (E. coli; production/accumulation in E. coli): toxic effects
- toxicity in P. putida strain with the putative catabolic pathway knocked out (P. putida; follow-up experiments): lack of p-ACA toxicity
- P. putida growth (P. putida; kinetic growth experiment, extracellular p-ACA in the media (FIG. 31C)): relatively unaffected
- effect on P. putida growth (P. putida; up to 20 mM extracellular): little effect
- solubility (p-ACA solubility limit): ~20 mM (≈ 3260 µg/mL)
- consumption of extracellular p-ACA by growing P. putida cultures (P. putida cultures): lack of consumption

SMILES: CC(C)S[C@@H]1O[C@H](CO)[C@H](O)[C@H](O)[C@H]1O [IPTG]
- activation of mRFP reporter (LacI-Ptrc) (LacI-Ptrc promoter): 13 fold

SMILES: Cc1cccc(C(=O)O)c1 [m-toluic acid]
- activation of mRFP reporter (XylS-Pm) (XylS-Pm promoter): > 300 fold
- activation with CRISPRa (XylS-Pm-dCas9; [2]): 3 fold
- repression with CRISPRi (XylS-Pm-dCas9; [2]): 7 fold
- fold-change with CRISPRa (XylS-Pm-dCas9; [3]): 4 fold
- fold-change with CRISPRi (XylS-Pm-dCas9; [3]): 5 fold
- increase in mRFP expression ([1]; 5 mM inducer, strain with constitutively expressed CRISPRa machinery): 1.3 fold
- fold-activation in the presence of inducer ([1]; strain PPC08 (inducible dCas9)): 9 fold
- fold-activation in the presence of inducer ([1]; strain PPC09 (inducible MCP-SoxS)): 5 fold
- fold-activation in the presence of inducer ([1]; strain PPC10 (dCas9 and MCP-SoxS inducible)): 10 fold
